21 compounds from ChEMBL document CHEMBL1909046, “DrugMatrix in vitro pharmacology data” can be followed below.

Experiment [1] deals with T1, Alpha-2C adrenergic receptor (Homo sapiens, UniProt P18825).
T1 sequence (P18825 whole entry): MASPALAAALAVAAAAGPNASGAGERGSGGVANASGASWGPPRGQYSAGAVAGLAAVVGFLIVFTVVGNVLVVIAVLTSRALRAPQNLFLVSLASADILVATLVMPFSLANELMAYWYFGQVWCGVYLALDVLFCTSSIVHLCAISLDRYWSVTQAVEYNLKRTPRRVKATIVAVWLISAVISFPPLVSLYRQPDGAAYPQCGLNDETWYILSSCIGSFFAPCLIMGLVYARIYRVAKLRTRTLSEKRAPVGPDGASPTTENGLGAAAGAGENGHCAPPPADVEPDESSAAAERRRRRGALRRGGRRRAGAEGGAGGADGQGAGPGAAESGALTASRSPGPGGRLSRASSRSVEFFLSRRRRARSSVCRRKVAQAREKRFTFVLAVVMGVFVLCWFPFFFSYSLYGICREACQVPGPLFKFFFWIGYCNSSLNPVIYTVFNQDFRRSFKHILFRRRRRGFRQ
The experiment is described as follows: DRUGMATRIX: Adrenergic Alpha-2C radioligand binding (ligand: [3H] MK-912). Type of experiment: cell membranes, Sf9, Membrane. Particulars: for Ki: read-out: Ki.

For experiment [2], the target named is Beta-3 adrenergic receptor (Homo sapiens, UniProt P13945). As to the kind of experiment: DRUGMATRIX: Adrenergic beta3 radioligand binding (ligand: [125I] Cyanopindolol). Type of experiment: cell membranes, HEK293, Membrane. The note with it: hek293; Not Active = under 50% inhibition at 10 µM.
Experiment [3] is described as follows: DRUGMATRIX: GABAA, Muscimol, Central radioligand binding (ligand: [3H] Muscimol). The note with it: Not Active = under 50% inhibition at 10 µM. Type of experiment: cell membranes, Rattus norvegicus, Wistar, Brain, Membrane.
A further experiment addresses T2, Leukotriene C4 synthase (Cavia porcellus, UniProt A6XA80).
T2 sequence (A6XA80 whole entry): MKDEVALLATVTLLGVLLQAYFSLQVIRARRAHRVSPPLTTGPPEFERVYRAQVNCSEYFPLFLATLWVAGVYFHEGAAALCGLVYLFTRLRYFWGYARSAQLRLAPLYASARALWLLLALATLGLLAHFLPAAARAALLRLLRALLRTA
It is filed as tissue-based, Lung.

Experiment [4] is described as follows: DRUGMATRIX: Phorbol Ester radioligand binding (ligand: [3H] PDBu). Type of experiment: cell membranes, Mus musculus, ICR, Brain, Membrane. Particulars: Not Active = under 50% inhibition at 10 µM.
Experiment [5] addresses Tyrosine-protein kinase Lck (Homo sapiens, UniProt P06239). The experiment is described as follows: DRUGMATRIX: Protein Tyrosine Kinase, LCK enzyme inhibition (substrate: Poly(Glu:Tyr)). Type of experiment: cell-based, Insect cells. The note with it: insect cells; Not Active = under 50% inhibition at 10 µM.

Chain of Tyrosine-protein kinase Lck (P06239 whole entry): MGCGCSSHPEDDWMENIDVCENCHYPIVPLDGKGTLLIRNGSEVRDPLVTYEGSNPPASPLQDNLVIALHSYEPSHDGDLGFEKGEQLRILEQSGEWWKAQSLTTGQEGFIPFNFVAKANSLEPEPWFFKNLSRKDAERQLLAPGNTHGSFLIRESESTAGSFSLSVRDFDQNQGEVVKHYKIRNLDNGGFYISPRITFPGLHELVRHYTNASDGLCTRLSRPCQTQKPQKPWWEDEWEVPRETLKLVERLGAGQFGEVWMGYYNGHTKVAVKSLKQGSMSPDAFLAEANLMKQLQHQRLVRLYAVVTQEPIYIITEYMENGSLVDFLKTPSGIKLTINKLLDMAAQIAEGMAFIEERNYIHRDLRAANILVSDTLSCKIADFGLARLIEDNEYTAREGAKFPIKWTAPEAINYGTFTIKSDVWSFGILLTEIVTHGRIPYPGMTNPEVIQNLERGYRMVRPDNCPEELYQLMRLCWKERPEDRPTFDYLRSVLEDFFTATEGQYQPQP
Chain of Beta-3 adrenergic receptor (P13945 whole entry): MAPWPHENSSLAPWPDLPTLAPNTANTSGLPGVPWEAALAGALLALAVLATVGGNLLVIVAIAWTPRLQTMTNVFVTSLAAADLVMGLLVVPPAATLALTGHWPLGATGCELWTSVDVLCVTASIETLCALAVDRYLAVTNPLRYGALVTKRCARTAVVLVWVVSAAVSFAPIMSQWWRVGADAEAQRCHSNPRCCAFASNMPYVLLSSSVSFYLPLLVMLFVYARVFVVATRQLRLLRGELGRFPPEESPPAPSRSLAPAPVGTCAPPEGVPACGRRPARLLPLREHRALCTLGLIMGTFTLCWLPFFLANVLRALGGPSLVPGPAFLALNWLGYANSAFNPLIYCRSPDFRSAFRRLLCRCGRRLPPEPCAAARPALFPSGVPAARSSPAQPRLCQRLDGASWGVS

In the case of `CC[C@H](C)[C@H]1O[C@]2(C=C[C@@H]1C)C[C@@H]1C[C@@H](C/C=C(\C)[C@@H](O[C@H]3C[C@H](OC)[C@@H](O[C@H]4C[C@H](OC)[C@@H](O)[C@H](C)O4)[C@H](C)O3)[C@@H](C)/C=C/C=C3\CO[C@@H]4[C@H](O)C(C)=C[C@@H](C(=O)O1)[C@]34O)O2.CO[C@H]1C[C@H](O[C@H]2[C@H](C)O[C@@H](O[C@@H]3/C(C)=C/C[C@@H]4C[C@@H](C[C@]5(C=C[C@H](C)[C@@H](C(C)C)O5)O4)OC(=O)[C@@H]4C=C(C)[C@@H](O)[C@H]5OC/C(=C\C=C\[C@@H]3C)[C@]54O)C[C@@H]2OC)O[C@@H](C)[C@@H]1O` [ABAMECTIN], the IC50 result (in experiment [1] (sf9); in experiment [2]; in experiment [3]; against Leukotriene C4 synthase; in experiment [4]; in experiment [5]) was “Not Active” throughout. For the same compound, the Ki result in experiment [3] and in experiment [4] was “Not Active” each time.

In the case of `COC(=O)Nc1nc2ccc([S+]([O-])c3ccccc3)cc2[nH]1` (stereo not drawn) [OXFENDAZOLE], the IC50 result (in experiment [1] (sf9); in experiment [2]; in experiment [3]; on Leukotriene C4 synthase; in experiment [4]; in experiment [5]) was “Not Active” each time. In addition, the Ki result in experiment [3] and in experiment [4] was “Not Active” each time.

For `CCC1(C)CC(=O)NC1=O` (stereo not drawn) [ETHOSUXIMIDE], the IC50 result (in experiment [1] (sf9); in experiment [2]; in experiment [3]; against Leukotriene C4 synthase; in experiment [4]; in experiment [5]) was “Not Active” in each case. Besides, the Ki result in experiment [3] and in experiment [4] was “Not Active” each time.

Take `CC[C@H]1CN2CCc3cc(OC)c(OC)cc3[C@@H]2C[C@@H]1C[C@H]1NCCc2cc(OC)c(OC)cc21` [EMETINE]: the IC50 (in general, the concentration needed to halve the response being measured) in experiment [1] (read-out: IC50) is 182 nM; in experiment [2], “Not Active”; in experiment [3], “Not Active”; against Leukotriene C4 synthase, “Not Active”; in experiment [4] it was “Not Active”; in experiment [5], “Not Active”. Besides, the Ki (commonly the equilibrium dissociation constant of an inhibitor or competing ligand from its target) in experiment [1] is 26 nM; in experiment [3] it was “Not Active”; in experiment [4], “Not Active”.

On to `COc1ccc(C(=O)N2CCCC2=O)cc1`, for which the IC50 result (in experiment [1] (sf9); in experiment [2]; in experiment [3]; against Leukotriene C4 synthase; in experiment [4]; in experiment [5]) was “Not Active” throughout. Moreover, the Ki result in experiment [3] and in experiment [4] was “Not Active” each time.

`O=C(O)CCNC(=O)c1ccccc1` [BETAMIPRON]: the IC50 result (in experiment [1] (sf9); in experiment [2]; in experiment [3]; against Leukotriene C4 synthase; in experiment [4]; in experiment [5]) was “Not Active” each time. Moreover, the Ki entry in experiment [3] and in experiment [4] was “Not Active” in each case.

Regarding `COc1cc(N)c(Cl)cc1C(=O)NC1CCN(CCCOc2ccc(F)cc2)CC1OC` (stereo not drawn) [CISAPRIDE], the 50% inhibitory concentration (IC50) result (in experiment [2]; in experiment [3]; on Leukotriene C4 synthase; in experiment [4]; in experiment [5]) was “Not Active” each time. Further, the Ki entry in experiment [3] and in experiment [4] was “Not Active” each time.

Take `N=C(N)NC(=O)Cc1c(Cl)cccc1Cl` [GUANFACINE]: the IC50 entry (in experiment [2]; in experiment [3]; against Leukotriene C4 synthase; in experiment [4]; in experiment [5]) was “Not Active” in each case. In addition, the Ki result in experiment [3] and in experiment [4] was “Not Active” throughout.

For `CC(C)(C)NC(=O)[C@H]1CC[C@H]2[C@@H]3CC[C@H]4NC(=O)C=C[C@]4(C)[C@H]3CC[C@]12C` [FINASTERIDE], the IC50 result (in experiment [1] (sf9); in experiment [2]; in experiment [3]; against Leukotriene C4 synthase; in experiment [4]; in experiment [5]) was “Not Active” throughout. Besides, the Ki entry in experiment [3] and in experiment [4] was “Not Active” throughout.

As to `NNc1nncc2ccccc12` [HYDRALAZINE], the IC50 result (in experiment [1] (sf9); in experiment [2]; in experiment [3]; against Leukotriene C4 synthase; in experiment [4]; in experiment [5]) was “Not Active” in each case. Also, the Ki entry in experiment [3] and in experiment [4] was “Not Active” throughout.

As for `O=C/C=C/c1ccccc1`, the IC50 result (in experiment [1] (sf9); in experiment [2]; in experiment [3]; against Leukotriene C4 synthase; in experiment [4]; in experiment [5]) was “Not Active” throughout. The Ki entry in experiment [3] and in experiment [4] was “Not Active” each time.

`CN(C)CC[C@@H](c1ccc(Cl)cc1)c1ccccn1` [DEXCHLORPHENIRAMINE]: the IC50 result (in experiment [1] (sf9); in experiment [2]; in experiment [3]; at Leukotriene C4 synthase; in experiment [4]; in experiment [5]) was “Not Active” throughout. In addition, the Ki entry in experiment [3] and in experiment [4] was “Not Active” throughout.

Take `COc1ccc2cc3[n+](cc2c1OC)CCc1cc2c(cc1-3)OCO2.[Cl-]` [BERBERINE CHLORIDE]: the IC50 is 2840 nM in experiment [1] (read-out: IC50); “Not Active” in experiment [2]; “Not Active” in experiment [3]; “Not Active” on Leukotriene C4 synthase; “Not Active” in experiment [4]; “Not Active” in experiment [5]. Further, the results for the Ki in experiment [1], in experiment [3] and in experiment [4] were 412 nM, “Not Active” and “Not Active”, respectively.

Consider `OC(CCCN1CCCCC1)(c1ccccc1)c1ccccc1` [DIPHENIDOL], for which the IC50 entry (in experiment [1] (sf9); in experiment [2]; in experiment [3]; at Leukotriene C4 synthase; in experiment [4]; in experiment [5]) was “Not Active” throughout. Moreover, the Ki entry in experiment [3] and in experiment [4] was “Not Active” throughout.

Turning to `CC1(C)S[C@@H]2[C@H](NC(=O)[C@H](N)c3ccccc3)C(=O)N2[C@H]1C(=O)O` [AMPICILLIN], the IC50 result (in experiment [1] (sf9); in experiment [2]; in experiment [3]; at Leukotriene C4 synthase; in experiment [4]; in experiment [5]) was “Not Active” throughout. The Ki entry in experiment [3] and in experiment [4] was “Not Active” each time.

`Cn1c(=O)c2[nH]cnc2n(C)c1=O.Cn1c(=O)c2[nH]cnc2n(C)c1=O.NCCN` [AMINOPHYLLINE]: the IC50 entry (in experiment [1] (sf9); in experiment [2]; in experiment [3]; on Leukotriene C4 synthase; in experiment [4]; in experiment [5]) was “Not Active” each time. Besides, the Ki result in experiment [3] and in experiment [4] was “Not Active” each time.

In the case of `CC(C)=CCC/C(C)=C/CO` [GERANIOL], the IC50 entry (in experiment [1] (sf9); in experiment [2]; in experiment [3]; on Leukotriene C4 synthase; in experiment [4]; in experiment [5]) was “Not Active” each time. Moreover, the Ki result in experiment [3] and in experiment [4] was “Not Active” in each case.

As for `C#CC1(O)CC[C@H]2[C@@H]3CCC4=CC(=O)CC[C@@H]4[C@H]3CC[C@@]21CC` (stereo partly drawn) [NORGESTREL], the IC50 result (in experiment [1] (sf9); in experiment [2]; in experiment [3]; against Leukotriene C4 synthase; in experiment [4]; in experiment [5]) was “Not Active” in each case. Further, the Ki result in experiment [3] and in experiment [4] was “Not Active” each time.

With `C[C@@H]1C[C@H]2[C@@H]3CCC4=CC(=O)C=C[C@]4(C)[C@@]3(F)[C@@H](O)C[C@]2(C)[C@@]1(O)C(=O)CO` [DEXAMETHASONE], the IC50 entry (in experiment [1] (sf9); in experiment [2]; in experiment [3]; against Leukotriene C4 synthase; in experiment [4]; in experiment [5]) was “Not Active” in each case. Further, the Ki entry in experiment [3] and in experiment [4] was “Not Active” throughout.

Turning to `Nc1ccn([C@@H]2O[C@H](CO)[C@@H](O)[C@@H]2O)c(=O)n1` [CYTARABINE], the IC50 entry (in experiment [1] (sf9); in experiment [2]; in experiment [3]; on Leukotriene C4 synthase; in experiment [4]; in experiment [5]) was “Not Active” each time. The Ki result in experiment [3] and in experiment [4] was “Not Active” throughout.

As to `C=CCc1ccc(O)c(OC)c1` [EUGENOL], the IC50 entry (in experiment [1] (sf9); in experiment [2]; in experiment [3]; on Leukotriene C4 synthase; in experiment [4]; in experiment [5]) was “Not Active” each time. For the same compound, the Ki entry in experiment [3] and in experiment [4] was “Not Active” in each case.
